Test results published in patent publication US8759372B2, “N-(5S,6S,9R)-amino-6-(2,3-difluorophenyl)-6,7,8,9-tetrahydro-5H-ctclohepta[b]Pyridin-9-yl-4-(2-oxo-2,3-dihydro-1H-imidazo[4,5-b]pyridin-1-carboxylate salt” (Bristol-Myers Squibb Company, priority 2012, dated 2014).
Where a name gives a salt, the structure may show the parent alone. Read-outs that look alike come from different tables or passages of the source.

Columns and labels:
[1] = In vivo pharmacokinetic study in humans with and without famotidine pretreatment; conditions: for AUC(0-inf) / Cmax / half-life / Tmax: human, plasma; for AUC(0-inf) / Cmax / half-life / Cl/F: (%); for Tmax: read-out: Tmax Median
Procedure: An in vivo study was conducted comparing the pharmacokinetics of the free base Compound (I) in humans pretreated with 40 mg of famotidine with non-pretreated humans.
Compound (I) in human EDTA plasma was analyzed using liquid-liquid extraction with uHPLC-MS/MS detection on a Triple Quad 5500 mass spectrometer. The method utilized stable isotope labeled [^13C2, D4]-Compound (I) as the internal standard. After the addition of 50 μL of 100 ng/mL [^13C2, D4]-Compound (I) in MeOH:water (20/80) and of 50 μL 1M NH4OAc containing 4% acetic acid buffer solution to 0.100 mL of each study sample, quality control (QC) sample, and calibration standard, the samples were extracted with 600 μL methyl tert-butyl ether (MTBE) by shaking for 15 min. A 450 μL portion of the organic layer was removed and evaporated to dryness. The residue was reconstituted in 200 μL of the reconstitution solution (30% acetonitrile in 10 mM NH4OAc with 0.01% acetic acid). All liquid transfer steps were performed using a Perkin Elmer JANUS Mini® liquid handler except for the addition of the internal standard solution. A 10 μL aliquot of the extracted sample was injected to uHPLC-MS/MS system. The uHPLC was performed on a LEAP 4X Ultra uHPLC system with LEAP HTC PAL autosampler. Mobile phase A contained 10 mM NH4OAc and 0.01% acetic acid in ACN/water (10:90), and mobile phase B contained 10 mM NH4OAc and 0.01% acetic acid in ACN/water (90:10). Chromatographic separation was achieved on an Acquity® uHPLC BEH C18 column (1.7 μm, 2.1×50 mm) with an isocratic elution from 0-1.5 min consisted of 28% Mobile Phase B for analysis of Compound (I), then with a gradient elution consisted of a linear increase from 28% B to 100% B in 0.1 min, then maintaining it at 100% B for 1.1 min for washing out the column. The gradient was then returned to 28% B within 0.1 min, and maintained at 28% for 0.9 min with a total run time of 3.7 min. The flow rate was 0.6 mL/min and column temperature was maintained at 60° C. condition. Detection was accomplished using an AB Sciex Triple Quad 5500 mass spectrometer in positive ESI with turbo ion spray ionization and using multiple reaction monitoring (MRM) mode. The MRM transitions were m/z 535→256 for Compound (I) and m/z 541→256 for [^13C2, D4]-Compound (I). Data acquisition and quantiation were performed using AB Sciex Analyst® 1.5.1 software. The standard curve, which ranged from 0.500-500 ng/ml for Compound (I), was fitted to a 1/x2 weighted linear regression model. During sample analysis, four levels of analytical quality control (QC) samples representing low, geometric-mean, medium, and high concentrations of Compound (I) prepared in human EDTA plasma were analyzed in 4 replicates at each concentration level for each analytical run. The results from these QC samples were used to accept or reject the analytical runs containing study samples based on the acceptance criteria established a priori for the analysis of Compound (I) in human EDTA plasma.

[2] = Dissolution rate in aqueous medium; assay type: physicochemical; conditions: pH 1 and 5 versus pH 7
Text: The dissolution rate of Compound (I) is dependent on the pH of the aqueous medium. […] The normal pH of the stomach is 1.2 to 1.8 according to […], Clinical Analysis, Chapter 32, in Remington: The Science and Practice of Pharmacy 20th Edition, A. R. Gennaro, editor; 2000, Lippinocott Williams & Wilkins, Baltimore, Md. However, patients often take other medications that can raise the pH of the stomach, including antacids, proton pump inhibitors, and H2-receptor antagonists such as famotidine, which can lower the dissolution rate of Compound (I).

[3] = Solid state stability study; assay type: physicochemical
Procedure: The solid state stability of Example 1 was tested by exposing samples to various temperature and relative humidity conditions for periods of 1, 2, and 4 weeks.

[4] = Stability in water slurry; assay type: physicochemical; conditions: room temperature, two days
Procedure: An aqueous slurry of Example 1 was prepared and stored at room temperature.

[5] = Moisture sorption isotherm; assay type: physicochemical; conditions: for moisture sorption weight gain: 25° C.
Procedure: Example 1 has moisture sorption weight gains of 0.8 weight % and 2.8 weight % between 25% and 75% relative humidity and 5% and 95% relative humidity, respectively.
Moisture sorption isotherms were collected in a VTI SGA-100 Symmetric Vapor Analyzer using approximately 10 mg of sample. The sample was dried at 60° C. until the loss rate of 0.0005 wt %/min was obtained for 10 minutes. The sample was tested at 25° C. and 3 or 4, 5, 15, 25, 35, 45, 50, 65, 75, 85, and 95% RH. Equilibration at each RH was reached when the rate of 0.0003 wt %/min for 35 minutes was achieved or a maximum of 600 minutes.

[6] = Salt screen and crystalline salt characterization; assay type: physicochemical; conditions: for hygroscopicity: ambient temperature and relative humidity conditions, Hemisulfate Salt
Procedure: High throughput crystallization was employed to screen for the formation of crystalline salts of Compound (I). The screening examined acid type, acid level (equivalents), and/or type of crystallization solvent. Each plate contained 96 well plates (8 rows of 12 columns per plate).
A solution was prepared by dissolving 400 mg of Compound (I) in a mixture of 36 ml THF and 4 mL H2O. The solution ([…]) was transferred to 24 vials. To each vial was added 0.25 M EtOH stock solutions of the following acids:
The content of each vial was transferred to 12 crystallization wells and evaporated to dryness. Upon evaporation, each well was charged with 100 μl of solvent using a robotic liquid handler. The following crystallization solvents were tested: methyl isobutyl ketone (MIBK), ethyl acetate, toluene, THF, acetonitrile, acetone, isopropanol, ethanol, methanol, 1,2-dichloroethylene, isopropanol/water (50:50), and water. Next, the plates were sealed with Teflon septa and subjected to temperature cycling. The plates were maintained at 50° C. for 10 hours and then allowed to cool to room temperature over a period of 14 hours. After the heating/cooling cycle, the contents of the wells were characterized by birefringent imaging. Perceived crystalline hits were further characterized by PXRD analysis.

[7] = Water activity studies between crystalline forms; assay type: physicochemical
Procedure: Form P22C: prepared by heating Form H1.5-1 at 60° C. for 2 hours or at 75° C. for 5 minutes.
Form P33: Form H1.5-1 converted to Form P33 between 50° C. and 75° C. in variable temperature PXRD experiment. Also observed after Form H1.5-1 was heated to 105° C. for 5 minutes, or prepared by slurring dry powder Form H1.5-1 in dry EtOH or IPAc. […] Form P35: Prepared from slurry of Form H1.5-1 in dry MeOH under molecular sieves (7% RH). Converted to Form P33 when dried at 60° C. Stability in Water Slurry

[8] = humans, 150 mg Compound (I) oral with 40 mg Famotidine pretreatment
[9] = humans, 150 mg Compound (I) oral, no pretreatment
[10] = humans, 150 mg with 40 mg Famotidine relative to no pretreatment
[11] = 25 RH/60° C. (first line, r9), 2 weeks
[12] = 25 RH/60° C. (first line, r9), 4 weeks
[13] = 25 RH/60° C. (first of three lines printed alike, r9), 1 week
[14] = 25 RH/60° C. (second line, r11), 1 week
[15] = 25 RH/60° C. (second line, r11), 2 weeks
[16] = 25 RH/60° C. (second line, r11), 4 weeks
[17] = 25 RH/60° C. (third line, r13), 1 week
[18] = 25 RH/60° C. (third line, r13), 2 weeks
[19] = 25 RH/60° C. (third line, r13), 4 weeks
[20] = HIL/UV (high-intensity light/ultraviolet), 1 week
[21] = HIL/UV (high-intensity light/ultraviolet), 2 weeks

N[C@@H]1c2cccnc2[C@H](OC(=O)N2CCC(n3c(=O)[nH]c4ncccc43)CC2)CC[C@H]1c1cccc(F)c1F [Compound (I), (5S,6S,9R)-5-amino-6-(2,3-difluorophenyl)-6,7,8,9-tetrahydro-5H-cyclohepta[b]pyridin-9-yl-4-(2-oxo-2,3-dihydro-1H-imidazo[4,5-b]pyridin-1-yl)piperidine-1-carboxylate]
AUC(0-inf) [1, 8]: 3060 ng·h/mL | Cmax [1, 8]: 259 ng/mL | half-life [1, 8]: 756 min | Tmax [1, 8]: 3 h | AUC(0-inf) [1, 9]: 7200 ng·h/mL | Cmax [1, 9]: 991 ng/mL | half-life [1, 9]: 722 min | Tmax [1, 9]: 2.5 h | change in AUC and Cmax ([1]; humans pretreated with 40 mg of famotidine compared to non-pretreated humans): significant reduction | Cl/F [1, 8]: 49 (28%) L/hr | Cl/F [1, 9]: 20.84 (75%) L/hr | F (AUCinf) [1, 10]: 42.5% (96%) | F (Cmax) [1, 10]: 26.2% (130%) | dissolution rate [2]: higher dissolution rate at pH values of 1 and 5 than at a pH value of 7

N[C@@H]1c2cccnc2[C@H](OC(=O)N2CCC(n3c(=O)[nH]c4ncccc43)CC2)CC[C@H]1c1cccc(F)c1F [Example 1, (5S,6S,9R)-5-Amino-6-(2,3-difluorophenyl)-6,7,8,9-tetrahydro-5H-cyclohepta[b]pyridin-9-yl-4-(2-oxo-2,3-dihydro-1H-imidazo[4,5-b]pyridin-1-yl) piperidine-1-carboxylate, Hemisulfate Salt]
% potency [3, 11]: 96.8% | % total impurities [3, 11]: 0.27% | % potency [3, 12]: 96.9% | % total impurities [3, 12]: 0.27% | % potency [3, 13]: 94.4% | % total impurities [3, 13]: 0.27% | % potency [3, 14]: 95.1% | % total impurities [3, 14]: 0.27% | % potency [3, 15]: 98.5% | % total impurities [3, 15]: 0.27% | % potency [3, 16]: 97.0% | % total impurities [3, 16]: 0.27% | % potency [3, 17]: 101.6% | % total impurities [3, 17]: 0.28% | % potency [3, 18]: 102.6% | % total impurities [3, 18]: 0.27% | % potency [3, 19]: 110.0% | % total impurities [3, 19]: 0.27% | % potency [3, 20]: 100.7% | % total impurities [3, 20]: 0.27% | % potency [3, 21]: 96.9% | % total impurities [3, 21]: 0.27% | % potency ([3]; Initial): 98.5% | % total impurities ([3]; Initial): 0.27% | % potency ([3]; Refrigerated, 1 week): 98.0% | % total impurities ([3]; Refrigerated, 1 week): 0.29% | % potency ([3]; Refrigerated, 2 weeks): 96.5% | % total impurities ([3]; Refrigerated, 2 weeks): 0.27% | % potency ([3]; Refrigerated, 4 weeks): 105.7% | % total impurities ([3]; Refrigerated, 4 weeks): 0.27% | solid state stability ([3]; tested temperature and relative humidity conditions, four weeks of storage): stable under the tested storage conditions | chemical degradation in aqueous slurry [4]: no significant chemical degradation | stability of crystalline form in aqueous slurry (PXRD) [4]: stable in the aqueous slurry | moisture sorption weight gain ([5]; between 5% and 95% relative humidity): 2.8 weight % | moisture sorption weight gain ([5]; between 25% and 75% relative humidity): 0.8 weight % | hygroscopicity ([5]; moisture sorption isotherm at 25° C.): low or non-hygroscopic | hygroscopicity ([6]; listed as Sulfuric acid): low/non- | hygroscopicity ([6]; listed as hemisulfate salt of Compound (I)): low hygroscopicity | chemical stability ([6]; crystalline salt): chemically stable | physical stability ([6]; crystalline salt): physically stable | relative stability of crystalline forms ([7]; Form H1.5-1 versus Form P22C): more stable at >23% relative humidity | relative stability of crystalline forms ([7]; Form H1.5-1 versus Form P33): more stable at >23% relative humidity
